Assay results: ChEMBL document CHEMBL1201862, “PubChem BioAssay data set” (2004)
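Tested at 5 concentrations; 48 h exposure; 96-well plates; endpoints linearly interpolated, else capped at highest concentration. Abbreviation: GI50, concentration required for 50% inhibition of growth.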 Active and inactive are the calls of the source. No stated cut-off is given here; in the data, active = GI50 up to about 1.1 µM and inactive = higher.

Experiments:
Assay in all cases: growth of human tumour cells (NCI), 48 h
HL-60 = test system: HL-60
SK-MEL-28 = test system: SK-MEL-28
Malme-3M = test system: Malme-3M
COLO 205 = test system: COLO 205
RPMI-8226 = test system: RPMI-8226
A498 = test system: A498
BT-549 = test system: BT-549
UACC-257 = test system: UACC-257
HOP-62 = test system: HOP-62
MOLT-4 = test system: MOLT-4
HCT-116 = test system: HCT-116
SR = test system: SR
KM12 = test system: KM12
SF-295 = test system: SF-295
Hs-578T = test system: Hs-578T
OVCAR-3 = test system: OVCAR-3
CCRF-CEM = test system: CCRF-CEM
MCF7 = test system: MCF7
HOP-92 = test system: HOP-92
DU-145 = test system: DU-145
A549 = test system: A549
HCT-15 = test system: HCT-15
SNB-19 = test system: SNB-19
HCC 2998 = test system: HCC 2998
SNB-75 = test system: SNB-75
SK-OV-3 = test system: SK-OV-3
U-251 = test system: U-251
NCI-H460 = test system: NCI-H460
T47D = test system: T47D
OVCAR-4 = test system: OVCAR-4
CAKI-1 = test system: CAKI-1
OVCAR-5 = test system: OVCAR-5
OVCAR-8 = test system: OVCAR-8
MDA-N = test system: MDA-N
TK-10 = test system: TK-10
ACHN = test system: ACHN
LOX IMVI = test system: LOX IMVI
MDA-MB-435 = test system: MDA-MB-435
NCI/ADR-RES = test system: NCI/ADR-RES
UO-31 = test system: UO-31
NCI-H226 = test system: NCI-H226
SF-539 = test system: SF-539
SN12C = test system: SN12C
SF-268 = test system: SF-268
MDA-MB-231 = test system: MDA-MB-231
HT-29 = test system: HT-29
UACC-62 = test system: UACC-62
K562 = test system: K562
M14 = test system: M14
786-0 = test system: 786-0
PC-3 = test system: PC-3
SK-MEL-5 = test system: SK-MEL-5
RXF 393 = test system: RXF 393
EKVX = test system: EKVX
NCI-H23 = test system: NCI-H23
IGROV-1 = test system: IGROV-1
SW-620 = test system: SW-620
SK-MEL-2 = test system: SK-MEL-2
NCI-H522 = test system: NCI-H522

Measured: GI50

CO/N=C(\C)c1cccc(Nc2nc3ccccc3c3occc23)c1
active: UACC-257 0.0419 µM | UO-31 < 0.01 µM | UACC-62 < 0.01 µM
inactive: HL-60 27.7 µM | SK-MEL-28 14.3 µM | Malme-3M 15.7 µM | COLO 205 12.1 µM | RPMI-8226 12.9 µM | A498 3.61 µM | BT-549 13.5 µM | HOP-62 15.4 µM | MOLT-4 11.2 µM | HCT-116 11.6 µM | SR 11.9 µM | KM12 7.59 µM | SF-295 13 µM | Hs-578T 10.9 µM | OVCAR-3 16.3 µM | CCRF-CEM 12.5 µM | MCF7 18.1 µM | HOP-92 6.3 µM | DU-145 15.8 µM | A549 13.1 µM | SNB-19 15.7 µM | HCC 2998 15.1 µM | SNB-75 15.3 µM | SK-OV-3 14.1 µM | U-251 15.9 µM | NCI-H460 11.8 µM | T47D 11.1 µM | OVCAR-4 14.8 µM | CAKI-1 10.8 µM | OVCAR-5 13.8 µM | OVCAR-8 17.1 µM | MDA-N 14.1 µM | TK-10 12.7 µM | ACHN 14 µM | LOX IMVI 15.2 µM | MDA-MB-435 12.2 µM | NCI/ADR-RES 14.4 µM | NCI-H226 1.56 µM | SF-539 13.6 µM | SN12C 13.3 µM | SF-268 15.4 µM | MDA-MB-231 10.4 µM | HT-29 5.19 µM | K562 16.4 µM | M14 16.7 µM | 786-0 13.8 µM | PC-3 14.5 µM | SK-MEL-5 14.8 µM | RXF 393 12.4 µM | EKVX 13.6 µM
10.4 µM: HCT-15

CC(=O)OC(OC(C)=O)c1c2ccccc2cc2ccccc12
inactive: HL-60 23.7 µM | COLO 205 17.8 µM | RPMI-8226 16.6 µM | A498 17.7 µM | BT-549 14.9 µM | UACC-257 21 µM | MOLT-4 2.78 µM | HCT-116 10.3 µM | SR 9.53 µM | KM12 6.93 µM | NCI-H23 25.1 µM | SF-295 20.7 µM | IGROV-1 21.2 µM | Hs-578T 23.2 µM | OVCAR-3 21.4 µM | CCRF-CEM 2.39 µM | MCF7 16.5 µM | HOP-92 21.4 µM | DU-145 27.9 µM | A549 19.1 µM | SNB-19 14.8 µM | SW-620 3.18 µM | HCC 2998 15.6 µM | SNB-75 17.3 µM | SK-OV-3 20.9 µM | U-251 5.98 µM | NCI-H460 14.6 µM | T47D 17.2 µM | CAKI-1 30.5 µM | OVCAR-5 30.5 µM | OVCAR-8 15.5 µM | MDA-N 22 µM | TK-10 20.4 µM | ACHN 24.1 µM | LOX IMVI 4.35 µM | MDA-MB-435 24.6 µM | NCI/ADR-RES 8.34 µM | UO-31 19.3 µM | NCI-H226 17.9 µM | SF-539 14.8 µM | SN12C 12.9 µM | SF-268 18.4 µM | MDA-MB-231 18 µM | HT-29 13.4 µM | UACC-62 15.9 µM | K562 3.56 µM | M14 20.5 µM | 786-0 20.3 µM | PC-3 3.59 µM | SK-MEL-5 11.9 µM | RXF 393 13.3 µM | EKVX 20 µM
7.55 µM: HCT-15

Fc1ccc(Nc2nc(Cl)c3nc[nH]c3n2)cc1Cl
inactive: HL-60 > 100 µM | SK-MEL-28 > 100 µM | Malme-3M > 100 µM | COLO 205 > 100 µM | RPMI-8226 > 100 µM | A498 > 100 µM | BT-549 > 100 µM | UACC-257 > 100 µM | HOP-62 61.8 µM | MOLT-4 > 100 µM | HCT-116 > 100 µM | SK-MEL-2 > 100 µM | NCI-H522 43.5 µM | SR 86.1 µM | KM12 > 100 µM | NCI-H23 79.6 µM | SF-295 > 100 µM | IGROV-1 84.9 µM | Hs-578T 39.9 µM | OVCAR-3 > 100 µM | CCRF-CEM > 100 µM | MCF7 98.9 µM | HOP-92 > 100 µM | DU-145 87.3 µM | A549 > 100 µM | SNB-19 > 100 µM | SW-620 > 100 µM | HCC 2998 32.9 µM | SNB-75 41.4 µM | SK-OV-3 87.1 µM | U-251 74.6 µM | NCI-H460 58.9 µM | T47D 38.5 µM | OVCAR-4 > 100 µM | CAKI-1 6.97 µM | OVCAR-5 > 100 µM | OVCAR-8 24.9 µM | MDA-N > 100 µM | TK-10 > 100 µM | ACHN 34.9 µM | LOX IMVI 75.3 µM | MDA-MB-435 > 100 µM | NCI/ADR-RES 37.8 µM | UO-31 4.74 µM | NCI-H226 > 100 µM | SF-539 45.5 µM | SN12C > 100 µM | SF-268 35.6 µM | MDA-MB-231 > 100 µM | HT-29 > 100 µM | UACC-62 > 100 µM | M14 > 100 µM | 786-0 86.9 µM | PC-3 > 100 µM | SK-MEL-5 > 100 µM | EKVX 67.8 µM
> 100 µM: HCT-15
